According to BindingDB's records for doi:10.1016/j.bioorg.2016.03.011 (Beni-Suef University, 2016):

Target: Epidermal growth factor receptor (Homo sapiens, UniProt P00533)
Experiment: Kinase-Glo Plus Luminescence Kinase Assay
Experimental: Kinase activity was determined using Kinase-Glo Plus luminescence kinase assay kit according to the manufacturer instructions. The assays depend on the quantitation of the amount of ATP remaining in the solution of kinase reaction.

Sequence of Epidermal growth factor receptor (P00533 whole entry): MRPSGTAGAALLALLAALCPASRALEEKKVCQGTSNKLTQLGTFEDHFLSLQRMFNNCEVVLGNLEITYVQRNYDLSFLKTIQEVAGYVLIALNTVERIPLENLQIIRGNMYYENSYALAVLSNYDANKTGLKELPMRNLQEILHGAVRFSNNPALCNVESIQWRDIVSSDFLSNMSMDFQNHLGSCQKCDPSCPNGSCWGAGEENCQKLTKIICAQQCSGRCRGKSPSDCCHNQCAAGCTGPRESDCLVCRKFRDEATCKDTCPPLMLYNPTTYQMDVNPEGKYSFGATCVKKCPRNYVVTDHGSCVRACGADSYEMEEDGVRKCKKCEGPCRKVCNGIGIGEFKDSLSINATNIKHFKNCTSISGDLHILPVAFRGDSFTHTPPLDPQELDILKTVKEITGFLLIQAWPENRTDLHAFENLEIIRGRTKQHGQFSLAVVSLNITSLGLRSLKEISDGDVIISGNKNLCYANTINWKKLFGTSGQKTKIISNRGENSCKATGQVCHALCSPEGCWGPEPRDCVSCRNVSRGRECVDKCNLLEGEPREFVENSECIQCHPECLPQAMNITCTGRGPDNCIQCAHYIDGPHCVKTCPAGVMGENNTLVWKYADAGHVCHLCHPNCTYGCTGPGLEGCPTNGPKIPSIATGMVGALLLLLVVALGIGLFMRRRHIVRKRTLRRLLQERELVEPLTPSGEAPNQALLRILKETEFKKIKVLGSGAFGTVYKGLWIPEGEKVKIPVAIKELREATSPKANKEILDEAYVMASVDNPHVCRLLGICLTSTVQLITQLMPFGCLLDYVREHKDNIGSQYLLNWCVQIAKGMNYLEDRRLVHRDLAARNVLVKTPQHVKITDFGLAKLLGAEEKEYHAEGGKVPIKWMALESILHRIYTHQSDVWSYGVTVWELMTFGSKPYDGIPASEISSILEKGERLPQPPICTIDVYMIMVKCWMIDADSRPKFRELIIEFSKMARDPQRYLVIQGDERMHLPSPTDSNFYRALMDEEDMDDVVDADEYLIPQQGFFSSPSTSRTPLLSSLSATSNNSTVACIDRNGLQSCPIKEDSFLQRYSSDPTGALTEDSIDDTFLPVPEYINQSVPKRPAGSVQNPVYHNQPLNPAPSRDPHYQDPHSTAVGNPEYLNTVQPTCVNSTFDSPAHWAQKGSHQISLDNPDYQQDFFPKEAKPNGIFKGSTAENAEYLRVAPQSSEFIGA

| Structure (SMILES) | IC50 |
| --- | --- |
| Cc1cc(OCC(=O)N/N=C/c2ccc(F)cc2)c2c(C)nn(-c3ccccc3)c2n1 [N-(4-fluorobenzylidene)-2-(3,6-dimethyl-1-phenyl-1H-pyrazolo[3,4-d]pyrimidin-4-yloxy)acetohydrazide (12b)] | 30 µM |
| Cc1cc(OCC(=O)N/N=C/c2ccc(C(F)(F)F)cc2)c2c(C)nn(-c3ccccc3)c2n1 [N-(4-Trifluoromethylbenzylidene)-2-(3,6-dimethyl-1-phenyl-1H-pyrazolo[3,4-d]pyrimidin-4-yloxy)acetohydrazide (12f)] | 35.9 µM |
